Measured values: US10934253B2, “Therapeutic compounds and methods” (UNIVERSITY OF TASMANIA, priority 2017, dated 2021)

Columns and labels:
[1] = system: HepG2 cells; test: Cell viability in the presence of a mitochondrial inhibitor (rotenone 10 μM); format: cell-based; details: Homo sapiens, HepG2, 48 h, read-out: CELL VIABILITY [%]
Method: (§1) Cytoprotection of HepG2 cells by naphthoquinones was quantified in the presence of the mitochondrial toxin, rotenone. Briefly, HepG2 cells were seeded in 96-well plates at 5000 cells/well in DMEM with 0.3 g/l glucose, 10% FBS and Penicillin-Streptomycin-Glutamine. After overnight incubation under standard conditions, cells were treated with the test compounds (10 μM) for 2 days before cells were challenged with 1 μM rotenone in the presence of 10 μM test compounds in Hank's balanced salt solution (HBSS) for 6 hours. This was followed by post-incubation for an additional 18 hours with only 10 μM test compounds in HBSS. For measurement of cell viability, cells were washed with 100 μL PBS twice and then lysed using 40 μL lysis solution (4 mM EDTA, 0.2% Triton X-100) for 5 min at room temperature (RT) on an orbital shaker at 200 rpm. Then 10 μL of the lysate was mixed with 90 μL of enzyme-substrate mixture (as described above) in a white 96 well plate and luminescence was measured immediately using a plate-reader (Fluoroscan Ascent, Thermo Scientific). The data is expressed as % viability compared to the untreated (no-rotenone) control.
The cytoprotective effects of representative compounds of Formula (I) were further examined in vitro in response to rotenone toxicity at (10 μM). […] Cells were treated with the representative compounds of Formula (I) compounds (10 μM) for 2 days before cells were challenged with 10 μM rotenone.
Vitamin K, Menadione and Idebenone were used as comparative controls.

[2] = system: HepG2 cells; test: Rescue of cell viability in the presence of a mitochondrial inhibitor (rotenone 1 μM); format: cell-based; details: Homo sapiens, HepG2
Method: as §1
The extent of protection of cellular viability against a rotenone challenge of representative compounds of Formula (I) is shown below in Table 5. Vitamin K, Menadione and Idebenone were used as comparative controls. DMSO was used as a control.

COC(=O)C(Cc1ccccc1)NC(=O)CCCC1=C(C)C(=O)c2ccccc2C1=O (stereo in doubt) [UTA #35, (R)-methyl-2(4-(3-methyl-1,4-naphthoquinone-2-yl)butamido)-3-phenylpropanoate]
viability at 10 µM [1]: 76.2%

CC1=C(CCC(C)O)C(=O)c2ccccc2C1=O (stereo not shown) [UTA #24]
viability at 10 µM [1]: 72.8%

CC1=C(CCCC(=O)N2CCC[C@H]2C(=O)OC(C)(C)C)C(=O)c2ccccc2C1=O [UTA #42, (S)-tert-butyl-1-(4-(3-methyl-1,4-naphthoquinone-2-yl)butanoyl)pyrrolidine-2-carboxylate]
viability at 10 µM [1]: 64.7%

CC1=C(CCCC(=O)N2CCC[C@H]2C(=O)O)C(=O)c2ccccc2C1=O [UTA #43, (S)-1-(4-(3-methyl-1,4-naphthoquinone-2-yl)butanoyl)pyrrolidine-2-carboxylic Acid]
viability at 10 µM [2]: 92.7%
viability at 10 µM [1]: 92.7%

CC1=C(CCCC(=O)NCC(=O)OC(C)(C)C)C(=O)c2ccccc2C1=O [UTA #47]
viability at 10 µM [1]: 74.4%

CC1=C(CCCC(=O)N2CCC[C@H]2CO)C(=O)c2ccccc2C1=O [UTA #61, (S)-2-(4-(2-(hydroxymethyl)pyrrolidin-1-yl)-4-oxobutyl)-3-methyl-1,4-naphthoquinone]
viability at 10 µM [2]: 101%
viability at 10 µM [1]: 101%

CC1=C(CCCCCC(=O)N[C@@H](Cc2ccccc2)C(=O)O)C(=O)c2ccccc2C1=O [UTA #76]
viability at 10 µM [1]: 68.1%

CC1=C(CCCC(=O)N[C@@H](CO)Cc2ccccc2)C(=O)c2ccccc2C1=O [UTA #78]
viability at 10 µM [1]: 80%

CC1=C(CCCC(=O)N[C@@H](CO)c2ccccc2)C(=O)c2ccccc2C1=O [UTA #80]
viability at 10 µM [2]: 87.6%
viability at 10 µM [1]: 87.6%

CC1=C(CCCC(=O)N[C@H](CO)c2ccccc2)C(=O)c2ccccc2C1=O [UTA #81]
viability at 10 µM [2]: 83.8%
viability at 10 µM [1]: 83.8%

CC1=C(CCCCC(=O)NCCc2ccc(O)cc2)C(=O)c2ccccc2C1=O [UTA #88]
viability at 10 µM [2]: 91.8%
viability at 10 µM [1]: 91.8%

CC1=C(CCCCCC(=O)NCCc2ccc(O)cc2)C(=O)c2ccccc2C1=O [UTA #89]
viability at 10 µM [2]: 85.2%
viability at 10 µM [1]: 85.2%

CCCCNC(=O)CCCC1=C(C)C(=O)c2ccccc2C1=O [UTA #91]
viability at 10 µM [2]: 82%
viability at 10 µM [1]: 82%

COC(=O)[C@@H]1C[C@@H](O)CN1C(=O)CCCC1=C(C)C(=O)c2ccccc2C1=O [UTA #93]
viability at 10 µM [1]: 74.4%

CC1=C(CCCC(=O)N[C@H](Cc2ccccc2)C(=O)O)C(=O)c2ccccc2C1=O [UTA #94]
viability at 10 µM [1]: 71.7%

COC(=O)[C@@H](NC(=O)CCCC1=C(C)C(=O)c2ccccc2C1=O)c1ccccc1 [UTA #95]
viability at 10 µM [2]: 86.1%
viability at 10 µM [1]: 86.1%

COC(=O)[C@H](NC(=O)CCCC1=C(C)C(=O)c2ccccc2C1=O)c1ccccc1 [UTA #97]
viability at 10 µM [2]: 84.8%
viability at 10 µM [1]: 84.8%

O=C(CCCC1=CC(=O)c2ccccc2C1=O)NCCc1ccc(O)cc1 [UTA #113]
viability at 10 µM [1]: 73.4%

O=C(CCCC1=CC(=O)c2ccccc2C1=O)N[C@H](CO)Cc1ccccc1 [UTA #115]
viability at 10 µM [2]: 80.8%
viability at 10 µM [1]: 80.8%

O=C(CCCC1=CC(=O)c2ccccc2C1=O)N[C@@H](Cc1ccccc1)C(=O)O [UTA #117]
viability at 10 µM [2]: 80.3%
viability at 10 µM [1]: 80.3%
